Laboratory results published in PMC4457528, “Identification of Novel Small Molecule Inhibitors of Oncogenic RET Kinase” (PLoS ONE, 2015).
Where two headings read alike, the source gives them in different places.

Tests used:
[1] = target: T1, KinomeScan kinase panel (Homo sapiens, UniProt O14936); assay: KinomeScan kinase panel, single concentration 10 µM; assay type: binding; settings: CASK, 10 µM; read-out: score (%)
T1 construct: purchased DiscoveRx (KinomeScan)

[2] = target: T2, KinomeScan kinase panel (Homo sapiens, UniProt Q9NWZ3); assay: as above; assay type: binding; settings: IRAK4, 10 µM
T2 construct: purchased DiscoveRx (KinomeScan)

[3] = target: T3, KinomeScan kinase panel (Homo sapiens, UniProt P36888, R834Q); assay: as above; assay type: binding; settings: FLT3(R834Q), 10 µM; read-out: score (%)
T3 construct: purchased DiscoveRx (KinomeScan)

[4] = target: T4, KinomeScan kinase panel (Homo sapiens, UniProt P51956); assay: as above; assay type: binding; settings: NEK3, 10 µM; read-out: score (%)
T4 construct: purchased DiscoveRx (KinomeScan)

[5] = target: T5, KinomeScan kinase panel (Homo sapiens, UniProt O14733); assay: as above; assay type: binding; settings: MKK7, 10 µM
T5 construct: purchased DiscoveRx (KinomeScan)

[6] = target: T6, KinomeScan kinase panel (Homo sapiens, UniProt Q8TBX8); assay: as above; assay type: binding; settings: PIP5K2C, 10 µM; read-out: score (%)
T6 construct: purchased DiscoveRx (KinomeScan)

[7] = target: T7, KinomeScan kinase panel (Plasmodium falciparum, UniProt P62344); assay: as above; assay type: binding; settings: PFCDPK1(P.falciparum), 10 µM; read-out: score (%)
T7 construct: purchased DiscoveRx (KinomeScan)

[8] = target: T8, KinomeScan kinase panel (Homo sapiens, UniProt P42345); assay: as above; assay type: binding; settings: MTOR, 10 µM; read-out: score (%)
T8 construct: purchased DiscoveRx (KinomeScan)

[9] = target: T9, KinomeScan kinase panel (Homo sapiens, UniProt Q9BX84); assay: as above; assay type: binding; settings: kinase TRPM6; 10 µM; read-out: score (%)
T9 construct: purchased DiscoveRx (KinomeScan)

[10] = target: T10, KinomeScan kinase panel (Mycobacterium tuberculosis, UniProt P9WI81); assay: as above; assay type: binding; settings: PKNB(M.tuberculosis), 10 µM; read-out: score (%)
T10 construct: purchased DiscoveRx (KinomeScan)

[11] = target: T11, KinomeScan kinase panel (Plasmodium falciparum, UniProt P61075); assay: as above; assay type: binding; settings: PFPK5(P.falciparum), 10 µM; read-out: score (%)
T11 construct: purchased DiscoveRx (KinomeScan)
T11 sequence (P61075 whole entry): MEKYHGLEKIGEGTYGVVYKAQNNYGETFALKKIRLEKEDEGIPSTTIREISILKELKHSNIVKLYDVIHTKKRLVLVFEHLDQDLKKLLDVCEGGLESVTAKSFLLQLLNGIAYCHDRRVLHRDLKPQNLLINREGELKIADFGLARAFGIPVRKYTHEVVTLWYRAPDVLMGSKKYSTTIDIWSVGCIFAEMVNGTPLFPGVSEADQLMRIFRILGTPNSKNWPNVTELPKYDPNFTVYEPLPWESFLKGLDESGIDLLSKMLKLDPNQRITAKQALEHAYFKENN

[12] = target: T12, KinomeScan kinase panel (Homo sapiens, UniProt P41743); assay: as above; assay type: binding; settings: kinase PRKCI; 10 µM; read-out: score (%)
T12 construct: purchased DiscoveRx (KinomeScan)

[13] = target: T13, KinomeScan kinase panel (Homo sapiens, UniProt Q9BQI3); assay: as above; assay type: binding; settings: EIF2AK1, 10 µM; read-out: score (%)
T13 construct: purchased DiscoveRx (KinomeScan)

[14] = target: T14, KinomeScan kinase panel (Homo sapiens, UniProt Q9UBF8); assay: as above; assay type: binding; settings: PIK4CB, 10 µM; read-out: score (%)
T14 construct: purchased DiscoveRx (KinomeScan)
T14 sequence (Q9UBF8 whole entry): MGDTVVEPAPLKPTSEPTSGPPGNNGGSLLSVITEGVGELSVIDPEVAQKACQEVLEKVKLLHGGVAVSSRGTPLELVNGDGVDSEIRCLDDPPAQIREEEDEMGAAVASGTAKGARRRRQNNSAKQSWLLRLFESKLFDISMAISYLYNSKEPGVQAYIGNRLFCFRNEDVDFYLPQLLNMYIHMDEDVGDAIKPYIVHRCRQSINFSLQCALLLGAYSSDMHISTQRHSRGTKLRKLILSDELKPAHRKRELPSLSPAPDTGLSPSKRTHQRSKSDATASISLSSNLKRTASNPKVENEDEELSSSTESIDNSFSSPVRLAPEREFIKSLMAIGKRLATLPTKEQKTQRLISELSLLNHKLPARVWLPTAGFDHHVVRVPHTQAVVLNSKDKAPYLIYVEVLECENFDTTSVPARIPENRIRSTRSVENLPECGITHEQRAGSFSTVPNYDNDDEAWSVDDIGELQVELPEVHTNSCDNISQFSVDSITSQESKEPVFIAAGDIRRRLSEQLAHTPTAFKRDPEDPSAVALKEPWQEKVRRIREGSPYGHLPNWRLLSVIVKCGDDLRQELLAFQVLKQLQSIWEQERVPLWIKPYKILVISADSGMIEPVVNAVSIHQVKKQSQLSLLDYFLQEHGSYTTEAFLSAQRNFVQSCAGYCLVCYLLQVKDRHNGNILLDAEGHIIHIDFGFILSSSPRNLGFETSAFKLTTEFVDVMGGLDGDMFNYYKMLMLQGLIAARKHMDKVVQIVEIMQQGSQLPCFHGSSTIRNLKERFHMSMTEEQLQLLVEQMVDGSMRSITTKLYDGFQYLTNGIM

[15] = target: T15, KinomeScan kinase panel (Homo sapiens, UniProt P10721, D816H); assay: as above; assay type: binding; settings: KIT(D816H), 10 µM; read-out: score (%)
T15 construct: purchased DiscoveRx (KinomeScan)

[16] = target: T16, KinomeScan kinase panel (Homo sapiens, UniProt Q00532); assay: as above; assay type: binding; settings: CDKL1, 10 µM; read-out: score (%)
T16 construct: purchased DiscoveRx (KinomeScan)

[17] = target: T17, KinomeScan kinase panel (Homo sapiens, UniProt Q14004); assay: as above; assay type: binding; settings: CDC2L5, 10 µM
T17 construct: purchased DiscoveRx (KinomeScan)

[18] = target: T18, KinomeScan kinase panel (Homo sapiens, UniProt Q13163); assay: as above; assay type: binding; settings: MEK5, 10 µM; read-out: score (%)
T18 construct: purchased DiscoveRx (KinomeScan)

[19] = target: T19, KinomeScan kinase panel (Homo sapiens, UniProt Q8NG66); assay: as above; assay type: binding; settings: NEK11, 10 µM; read-out: score (%)
T19 construct: purchased DiscoveRx (KinomeScan)

[20] = target: T20, KinomeScan kinase panel (Homo sapiens, UniProt P10721, A829P); assay: as above; assay type: binding; settings: KIT(A829P), 10 µM; read-out: score (%)
T20 construct: purchased DiscoveRx (KinomeScan)

[21] = target: T21, KinomeScan kinase panel (Homo sapiens, UniProt Q9NRH2); assay: as above; assay type: binding; settings: kinase SNRK; 10 µM; read-out: score (%)
T21 construct: purchased DiscoveRx (KinomeScan)

[22] = target: T22, KinomeScan kinase panel (Homo sapiens, UniProt Q5S007, G2019S); assay: as above; assay type: binding; settings: LRRK2(G2019S), 10 µM; read-out: score (%)
T22 construct: purchased DiscoveRx (KinomeScan)
T22 sequence (Q5S007 whole entry G2019S): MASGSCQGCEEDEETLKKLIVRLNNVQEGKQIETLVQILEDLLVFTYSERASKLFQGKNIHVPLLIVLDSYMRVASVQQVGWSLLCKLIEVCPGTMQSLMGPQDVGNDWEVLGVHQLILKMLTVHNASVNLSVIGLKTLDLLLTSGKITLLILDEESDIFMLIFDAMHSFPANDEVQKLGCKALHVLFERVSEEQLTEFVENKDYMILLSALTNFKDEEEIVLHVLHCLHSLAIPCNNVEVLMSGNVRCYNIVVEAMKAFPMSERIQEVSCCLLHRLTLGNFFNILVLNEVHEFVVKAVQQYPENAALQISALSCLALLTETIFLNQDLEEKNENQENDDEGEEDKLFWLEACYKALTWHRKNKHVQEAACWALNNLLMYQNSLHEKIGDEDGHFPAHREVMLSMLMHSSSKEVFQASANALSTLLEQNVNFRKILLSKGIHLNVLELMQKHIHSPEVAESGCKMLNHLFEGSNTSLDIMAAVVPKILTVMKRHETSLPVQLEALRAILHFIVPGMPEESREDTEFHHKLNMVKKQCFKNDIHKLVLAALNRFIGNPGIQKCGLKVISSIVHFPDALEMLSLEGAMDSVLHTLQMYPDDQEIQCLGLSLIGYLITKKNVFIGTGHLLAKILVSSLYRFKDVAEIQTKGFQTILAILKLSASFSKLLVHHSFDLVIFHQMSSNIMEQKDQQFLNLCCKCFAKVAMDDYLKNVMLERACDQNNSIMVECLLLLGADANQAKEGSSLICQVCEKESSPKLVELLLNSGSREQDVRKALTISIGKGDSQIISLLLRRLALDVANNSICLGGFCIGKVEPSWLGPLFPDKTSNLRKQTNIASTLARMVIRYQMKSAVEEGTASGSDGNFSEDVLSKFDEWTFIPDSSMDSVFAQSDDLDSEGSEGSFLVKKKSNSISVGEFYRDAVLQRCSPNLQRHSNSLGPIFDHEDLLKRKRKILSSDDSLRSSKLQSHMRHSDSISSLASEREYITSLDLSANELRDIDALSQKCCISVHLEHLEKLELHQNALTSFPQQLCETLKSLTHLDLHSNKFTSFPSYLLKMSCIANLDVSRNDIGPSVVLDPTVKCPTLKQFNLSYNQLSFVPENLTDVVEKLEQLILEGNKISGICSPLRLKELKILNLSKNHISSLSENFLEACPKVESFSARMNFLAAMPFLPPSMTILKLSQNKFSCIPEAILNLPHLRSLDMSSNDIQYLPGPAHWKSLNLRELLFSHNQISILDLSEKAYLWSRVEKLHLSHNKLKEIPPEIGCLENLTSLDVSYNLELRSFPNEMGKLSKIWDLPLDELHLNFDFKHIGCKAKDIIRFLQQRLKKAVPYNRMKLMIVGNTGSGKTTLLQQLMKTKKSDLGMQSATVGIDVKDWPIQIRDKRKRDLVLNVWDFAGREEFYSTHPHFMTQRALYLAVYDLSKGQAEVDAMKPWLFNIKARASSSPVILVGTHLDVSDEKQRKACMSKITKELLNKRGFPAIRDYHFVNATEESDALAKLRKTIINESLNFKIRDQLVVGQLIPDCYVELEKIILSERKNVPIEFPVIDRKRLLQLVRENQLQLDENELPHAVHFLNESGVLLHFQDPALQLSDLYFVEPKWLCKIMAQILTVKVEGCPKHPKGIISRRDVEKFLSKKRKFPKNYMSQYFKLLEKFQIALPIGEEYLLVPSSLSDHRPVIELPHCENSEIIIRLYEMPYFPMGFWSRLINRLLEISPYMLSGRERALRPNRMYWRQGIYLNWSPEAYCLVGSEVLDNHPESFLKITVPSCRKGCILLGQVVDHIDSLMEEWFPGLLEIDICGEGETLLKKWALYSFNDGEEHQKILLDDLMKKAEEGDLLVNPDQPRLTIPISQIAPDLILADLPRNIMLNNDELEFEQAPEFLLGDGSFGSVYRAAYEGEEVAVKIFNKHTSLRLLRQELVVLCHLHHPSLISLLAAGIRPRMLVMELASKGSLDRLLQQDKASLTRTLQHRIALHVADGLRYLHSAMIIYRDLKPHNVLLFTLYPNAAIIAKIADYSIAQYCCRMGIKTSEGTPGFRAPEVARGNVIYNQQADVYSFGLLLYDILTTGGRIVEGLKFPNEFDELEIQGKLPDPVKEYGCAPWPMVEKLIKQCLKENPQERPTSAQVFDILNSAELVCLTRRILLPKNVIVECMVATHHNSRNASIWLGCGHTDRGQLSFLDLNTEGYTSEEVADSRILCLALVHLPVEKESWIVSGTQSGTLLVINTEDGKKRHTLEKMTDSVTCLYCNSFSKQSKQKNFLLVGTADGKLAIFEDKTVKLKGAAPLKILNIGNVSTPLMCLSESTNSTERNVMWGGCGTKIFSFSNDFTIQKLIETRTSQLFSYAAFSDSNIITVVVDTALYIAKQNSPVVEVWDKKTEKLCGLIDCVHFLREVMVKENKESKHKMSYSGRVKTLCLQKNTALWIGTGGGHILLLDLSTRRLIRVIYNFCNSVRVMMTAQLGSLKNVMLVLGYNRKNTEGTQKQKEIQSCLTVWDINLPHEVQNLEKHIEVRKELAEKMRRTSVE

[23] = target: T23, KinomeScan kinase panel (Homo sapiens, UniProt Q8WU08); assay: as above; assay type: binding; settings: kinase YANK1; 10 µM; read-out: score (%)
T23 construct: purchased DiscoveRx (KinomeScan)

[24] = target: T24, KinomeScan kinase panel (Homo sapiens, UniProt Q6XUX3); assay: as above; assay type: binding; settings: kinase RIPK5; 10 µM; read-out: score (%)
T24 construct: purchased DiscoveRx (KinomeScan)

[25] = target: T25, KinomeScan kinase panel (Homo sapiens, UniProt P42336, I800L); assay: as above; assay type: binding; settings: PIK3CA(I800L), 10 µM; read-out: score (%)
T25 construct: purchased DiscoveRx (KinomeScan)
T25 sequence (P42336 whole entry I800L): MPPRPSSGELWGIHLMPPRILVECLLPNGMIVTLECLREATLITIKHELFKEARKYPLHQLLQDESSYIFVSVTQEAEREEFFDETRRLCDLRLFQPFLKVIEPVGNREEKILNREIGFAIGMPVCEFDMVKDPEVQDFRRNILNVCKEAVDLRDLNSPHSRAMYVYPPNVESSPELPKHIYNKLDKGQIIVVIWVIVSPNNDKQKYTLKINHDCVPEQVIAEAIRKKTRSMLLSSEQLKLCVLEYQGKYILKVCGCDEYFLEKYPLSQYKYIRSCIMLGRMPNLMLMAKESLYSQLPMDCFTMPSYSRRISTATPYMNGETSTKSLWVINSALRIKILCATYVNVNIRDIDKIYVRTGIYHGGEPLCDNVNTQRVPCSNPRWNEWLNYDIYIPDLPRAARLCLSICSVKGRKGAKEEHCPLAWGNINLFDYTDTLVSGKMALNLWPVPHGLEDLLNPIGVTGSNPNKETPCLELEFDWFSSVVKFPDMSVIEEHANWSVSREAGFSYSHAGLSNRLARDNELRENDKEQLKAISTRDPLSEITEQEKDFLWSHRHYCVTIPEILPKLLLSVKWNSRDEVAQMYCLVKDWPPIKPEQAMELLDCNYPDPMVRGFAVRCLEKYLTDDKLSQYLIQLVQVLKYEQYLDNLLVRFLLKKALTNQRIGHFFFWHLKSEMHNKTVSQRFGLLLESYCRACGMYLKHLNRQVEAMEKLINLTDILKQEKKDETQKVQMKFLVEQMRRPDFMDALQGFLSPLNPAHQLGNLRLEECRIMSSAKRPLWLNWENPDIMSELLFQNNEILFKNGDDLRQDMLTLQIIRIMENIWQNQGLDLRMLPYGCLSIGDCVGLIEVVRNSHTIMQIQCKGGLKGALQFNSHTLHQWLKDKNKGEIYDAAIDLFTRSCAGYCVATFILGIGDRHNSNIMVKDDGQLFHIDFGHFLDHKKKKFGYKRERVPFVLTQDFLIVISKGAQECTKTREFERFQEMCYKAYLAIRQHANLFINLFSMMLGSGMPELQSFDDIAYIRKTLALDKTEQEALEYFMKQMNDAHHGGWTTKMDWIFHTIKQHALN

[26] = target: T26, KinomeScan kinase panel (Homo sapiens, UniProt P51957); assay: as above; assay type: binding; settings: NEK4, 10 µM; read-out: score (%)
T26 construct: purchased DiscoveRx (KinomeScan)

[27] = target: T27, KinomeScan kinase panel (Homo sapiens, UniProt P23443); assay: as above; assay type: binding; settings: kinase S6K1; 10 µM; read-out: score (%)
T27 construct: purchased DiscoveRx (KinomeScan)

[28] = target: T28, KinomeScan kinase panel (Homo sapiens, UniProt P42336, E545A); assay: as above; assay type: binding; settings: PIK3CA(E545A), 10 µM; read-out: score (%)
T28 construct: purchased DiscoveRx (KinomeScan)
T28 sequence (P42336 whole entry E545A): as the sequence (P42336 whole entry I800L) above, with E545A, L800I counted along it

[29] = target: T29, KinomeScan kinase panel (Homo sapiens, UniProt P11802); assay: as above; assay type: binding; settings: read-out: score (%)
T29 construct: purchased DiscoveRx (KinomeScan)
T29 sequence (P11802 whole entry): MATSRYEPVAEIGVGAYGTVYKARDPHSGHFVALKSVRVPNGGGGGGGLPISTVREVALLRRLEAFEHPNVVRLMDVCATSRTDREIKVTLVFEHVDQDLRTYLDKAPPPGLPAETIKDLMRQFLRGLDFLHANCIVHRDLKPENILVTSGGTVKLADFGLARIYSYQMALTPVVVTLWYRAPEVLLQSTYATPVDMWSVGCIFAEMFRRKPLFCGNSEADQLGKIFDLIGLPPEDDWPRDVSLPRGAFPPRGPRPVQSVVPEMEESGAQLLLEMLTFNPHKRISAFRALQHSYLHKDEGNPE

[30] = target: T30, KinomeScan kinase panel (Homo sapiens, UniProt P00533, T790M); assay: as above; assay type: binding; settings: EGFR(T790M), 10 µM
T30 construct: purchased DiscoveRx (KinomeScan)

[31] = target: T31, KinomeScan kinase panel (Homo sapiens, UniProt Q5S007); assay: as above; assay type: binding; settings: LRRK2, 10 µM; read-out: score (%)
T31 construct: purchased DiscoveRx (KinomeScan)
T31 sequence (Q5S007 whole entry): as the sequence (Q5S007 whole entry G2019S) above, with S2019G counted along it

[32] = target: T32, KinomeScan kinase panel (Homo sapiens, UniProt Q86Y07); assay: as above; assay type: binding; settings: kinase VRK2; 10 µM; read-out: score (%)
T32 construct: purchased DiscoveRx (KinomeScan)

[33] = tested on: Ba/F3-RET/PTC3 cells; assay: Growth curves, Ba/F3 cells expressing RET/PTC3; settings: Ba/F3 RET/PTC3, without IL-3
Description: Fibroblasts were kept in medium supplemented with 5% fetal calf serum. Human cells were kept in 2% (TPC1), 5% (Nthy-ori-3-1), 20% (TT) or 10% (MZ-CRC-1) fetal calf serum. […] Cells were counted every 1–2 (fibroblasts) or 2–3 (human cell lines) days. Ba/F3 cells were kept in 10% fetal calf serum in 6-well dishes (200,000/well) and counted daily for 4 consecutive days, changing media every 2 days.
Differently from Ba/F3 NCOA4-RET, parental Ba/F3 were grown in the presence of IL3. Data are the mean ± SD of two experiments performed in triplicate.

Q: Which remaining binding at 10 µM [1] does the source give for `CCN1CCN(Cc2ccc(NC(=O)c3ccc(C)c(C#Cc4cccnc4)c3)cc2C(F)(F)F)CC1` [XMD15-44] here?
A: > 30%

Q: And the “score (%)” value [2]?
A: nb (Hits values higher than 30% were considered negative (no binding: nb))

Q: What about the remaining binding at 10 µM [3] of the same compound?
A: 4.2%

Q: What about the remaining binding at 10 µM [4] of the same compound?
A: 53%

Q: And the “score (%)” value [5]?
A: 11%

Q: And the remaining binding at 10 µM [6]?
A: 100%

Q: And the remaining binding at 10 µM [7]?
A: 0.05%

Q: And the remaining binding at 10 µM [8]?
A: > 30%

Q: What about the remaining binding at 10 µM [9] of the same compound?
A: 49%

Q: And the remaining binding at 10 µM [10]?
A: 87%

Q: And the remaining binding at 10 µM [11]?
A: 89%

Q: And the remaining binding at 10 µM [12]?
A: 42%

Q: And the remaining binding at 10 µM [13]?
A: > 30%

Q: What about the remaining binding at 10 µM [14] of the same compound?
A: 100%

Q: And the remaining binding at 10 µM [15]?
A: 6%

Q: And the remaining binding at 10 µM [16]?
A: > 30%

Q: And the “score (%)” value [17]?
A: 6.5%

Q: What about the remaining binding at 10 µM [18] of the same compound?
A: 0.4%

Q: What about the remaining binding at 10 µM [19] of the same compound?
A: 9.1%

Q: What about the remaining binding at 10 µM [20] of the same compound?
A: 27%

Q: And the remaining binding at 10 µM [21]?
A: 34%

Q: And the remaining binding at 10 µM [22]?
A: 7.5%

Q: And the remaining binding at 10 µM [23]?
A: 81%

Q: And the remaining binding at 10 µM [24]?
A: 27%

Q: And the remaining binding at 10 µM [25]?
A: 72%

Q: And the remaining binding at 10 µM [26]?
A: 6.4%

Q: What about the remaining binding at 10 µM [27] of the same compound?
A: 11%

Q: What about the remaining binding at 10 µM [28] of the same compound?
A: 93%

Q: What about the remaining binding at 10 µM ([29]; CDK4-cyclinD1, 10 µM) of the same compound?
A: 21%

Q: What about the remaining binding at 10 µM ([29]; CDK4-cyclinD3, 10 µM) of the same compound?
A: > 30%

Q: And the “score (%)” value [30]?
A: nb (Hits values higher than 30% were considered negative (no binding: nb))

Q: And the remaining binding at 10 µM [31]?
A: 3.4%

Q: And the remaining binding at 10 µM [32]?
A: 95%

Q: For `CCN1CCN(Cc2ccc(NC(=O)c3ccc(C)c(NC(=O)c4cncc(-c5cccs5)c4)c3)cc2C(F)(F)F)CC1` [ALW-II-41-27], which “effect on RET/PTC3-driven proliferation” value [33] is on record?
A: blunted

Q: And the remaining binding at 10 µM [14]?
A: > 30%

Q: And the remaining binding at 10 µM [28]?
A: > 30%
